Patent US7462614B2, “Imidazotriazine compounds” (Smithkline Beecham Corporation, priority 2003, dated 2008)

Legend:
[1] = test system: Normal Human foreskin fibroblasts (HFF); assay: Methylene Blue Growth Inhibition Assay, HFF; assay type: cell-based; details: 72 h, 3 days, read-out: MeB Cell Line IC50
Text: (§1) II. Methylene Blue Growth Inhibition Assay
(§2) Medium was removed by aspiration.

[2] = test system: colon (RKO) tumor cell line; assay: Methylene Blue Growth Inhibition Assay, RKO; assay type: cell-based; details: Homo sapiens, 72 h, 3 days, read-out: MeB Cell Line IC50
Text: as §1, §2

[3] = test system: breast tumor (MCF7) cell line; assay: Methylene Blue Growth Inhibition Assay, MCF7; assay type: cell-based; details: Homo sapiens, 72 h; MCF7, 3 days; read-out: MeB Cell Line IC50
Text: as §1, §2

[4] = test system: lung (H460) tumor cell line; assay: Methylene Blue Growth Inhibition Assay, H460; assay type: cell-based; details: Homo sapiens, NCI-H460, 72 h; H460, 3 days; read-out: MeB Cell Line IC50
Text: as §1, §2

[5] = test system: prostate (PC3) tumor cell line; assay: Methylene Blue Growth Inhibition Assay, PC3; assay type: cell-based; details: Homo sapiens, 72 h; PC3, 3 days; read-out: MeB Cell Line IC50
Text: as §1, §2

[6] = test system: colon (HCT116) tumor cell line; assay: Methylene Blue Growth Inhibition Assay, HCT116; assay type: cell-based; details: Homo sapiens, HCT-116, 72 h; HCT116, 3 days; read-out: MeB Cell Line IC50
Text: as §1, §2

[7] = molecular target: T1, truncated human PLK1 (kinase domain) (Homo sapiens, UniProt P53350); assay: Assay for Inhibition of PLK1 (33P SPA enzyme activity); assay type: biochemical; details: 1 μM ATP, 2 nM enzyme; read-out: Ave pIC50 PLK Enzyme Inhibition (converted)
T1 construct: made in house; host or cells: baculovirus-infected T. ni insect cells
Method: I. Assay for Inhibition of PLK1
A. Preparation of 6× N-Terminal His-Tagged PLK Kinase Domain
All procedures are performed at 4° C. Cells are lysed in 25 mM HEPES, 200 mM NaCl, 25 mM imidazole; pH 8.0. The homogenate is centrifuged at 14K rpm in a SLA-1500 rotor for 40 min and the supernatant filtered through a 1.2 micron filter. The supernatant is loaded onto a Nickel chelating Sepharose (Amersham Pharmacia) column and washed with 25 mM HEPES, 500 mM NaCl, 25 mM imidazole; pH 8.0. […] PLK is concentrated using a 10 kDa molecular weight cutoff membrane and then loaded onto a Superdex 75 gel filtration (Amersham BioSciences) column equilibrated in 25 mM HEPES, 1 mM DTT, 500 mM NaCl; pH 8.0. Fractions containing PLK are determined by SDS-PAGE. PLK is pooled, aliquoted and stored at […]. Samples are quality controlled using mass spectrometry.
B. Enzyme Activity±Inhibitors is Determined As Follows:
Compounds are added to the plate (1 μL in 100% DMSO).
Immediately upon addition of enzyme and thorough mixing, add 20 uL per well into 384-well white plates containing compounds and controls. […] The enzymatic reaction is stopped with 50 μl of bead mix (50 mM EDTA, 2 mg/ml Streptavidin-coated SPA beads in Standard Dulbecco's PBS (without Mg^2+and Ca^2+), and 60 μM ATP).

T1 sequence (P53350 21-346): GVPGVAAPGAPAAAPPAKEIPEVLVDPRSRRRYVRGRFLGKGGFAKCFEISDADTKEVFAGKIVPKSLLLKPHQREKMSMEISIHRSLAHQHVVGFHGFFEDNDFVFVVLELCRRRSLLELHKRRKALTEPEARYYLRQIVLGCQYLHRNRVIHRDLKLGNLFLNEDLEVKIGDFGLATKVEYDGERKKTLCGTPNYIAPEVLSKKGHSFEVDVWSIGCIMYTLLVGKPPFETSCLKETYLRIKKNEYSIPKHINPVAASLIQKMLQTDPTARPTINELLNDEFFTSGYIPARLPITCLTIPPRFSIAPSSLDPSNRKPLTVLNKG

Row | Compound | IC50 [2] | IC50 [3] | IC50 [4] | IC50 [5] | IC50 [6] | IC50 [7] | IC50 [1]
1 | COc1cc(Nc2ncc3c(C)nc(-c4cccc(C(F)(F)F)c4)n3n2)cc(OC)c1OC [Example 5, 5-Methyl-7-[3-(trifluoromethyl)phenyl]-N-(3,4,5-trimethoxyphenyl)-imidazo[5,1-f][1,2,4]triazin-2-amine] | 1 to 10 µM | 1 to 10 µM | 1 to 10 µM | 1 to 10 µM | 1 to 10 µM | – | 1 to 10 µM
2 | COc1cc(Nc2ncc3c(C)nc(-c4cccc(C#N)c4)n3n2)cc(OC)c1OC [Example 8, 3-{5-Methyl-2-[(3,4,5-trimethoxyphenyl)amino]imidazo[5,1-f][1,2,4]triazin-7-yl}benzonitrile] | 10 to 30 µM | 10 to 30 µM | 10 to 30 µM | 10 to 30 µM | 10 to 30 µM | < 100 nM | 10 to 30 µM
3 | COc1cc(Nc2ncc3c(C)nc(-c4cccc(Br)c4)n3n2)cc(OC)c1OC [Example 9, 7-(3-Bromophenyl)-5-methyl-N-(3,4,5-trimethoxyphenyl)imidazo-[5,1-f][1,2,4]triazin-2-amine] | 1 to 10 µM | 1 to 10 µM | 1 to 10 µM | 10 to 30 µM | 1 to 10 µM | < 100 nM | 10 to 30 µM
4 | COc1cc(Nc2ncc3c(C)nc(-c4cccc(C(N)=O)c4)n3n2)cc(OC)c1OC [Example 16, 3-{5-Methyl-2-[(3,4,5-trimethoxyphenyl)amino]imidazo[5,1-f][1,2,4]triazin-7-yl}benzamide] | 10 to 30 µM | 10 to 30 µM | 10 to 30 µM | 10 to 30 µM | 10 to 30 µM | 100 to 10000 nM | 10 to 30 µM
5 | Cc1nc(-c2ccccc2)n2nc(Nc3cccc(CCO)c3)ncc12 [Example 19, 2-{3-[(5-Methyl-7-phenylimidazo[5,1-f][1,2,4]triazin-2-yl)amino]phenyl}ethanol] | 1 to 10 µM | 1 to 10 µM | 1 to 10 µM | 10 to 30 µM | 1 to 10 µM | < 100 nM | 10 to 30 µM
6 | COc1cc(Nc2ncc3c(C)nc(-c4ccccc4O)n3n2)cc(OC)c1OC [Example 22, 2-{5-Methyl-2-[(3,4,5-trimethoxyphenyl)amino]imidazo[5,1-f][1,2,4]triazin-7-yl}phenol] | 10 to 30 µM | 10 to 30 µM | 10 to 30 µM | 10 to 30 µM | 10 to 30 µM | 100 to 10000 nM | 10 to 30 µM
7 | COc1cc(Nc2ncc3c(C)nc(-c4ccc(C(F)(F)F)cc4)n3n2)cc(OC)c1OC [Example 24, 5-Methyl-7-[4-(trifluoromethyl)phenyl]-N-(3,4,5-trimethoxy-phenyl)imidazo[5,1-f][1,2,4]triazin-2-amine] | 10 to 30 µM | 10 to 30 µM | 10 to 30 µM | 10 to 30 µM | 10 to 30 µM | 100 to 10000 nM | 10 to 30 µM
8 | Cc1nc(-c2cccc(C(F)(F)F)c2)n2nc(Nc3cccc(S(N)(=O)=O)c3)ncc12 [Example 41, 3-({5-Methyl-7-[3-(trifluoromethyl)phenyl]imidazo[5,1-f][1,2,4]triazin-2-yl}amino)benzenesulfonamide] | 1 to 10 µM | 1 to 10 µM | 1 to 10 µM | 10 to 30 µM | 1 to 10 µM | 100 to 10000 nM | 10 to 30 µM
9 | COc1cc(Nc2ncc3c(C)nc(C4CCCCC4)n3n2)cc(OC)c1OC [Example 90, 7-Cyclohexyl-5-methyl-N-[3,4,5-tris(methyloxy)phenyl]imidazo[5,1-f][1,2,4]triazin-2-amine] | – | – | – | – | – | 100 to 10000 nM | –
10 | COc1ccc(Nc2ncc3c(C)nc(CC4CCCCC4)n3n2)cc1 [Example 91, 7-(Cyclohexylmethyl)-5-methyl-N-[4-(methyloxy)phenyl]-imidazo[5,1-f][1,2,4]triazin-2-amine] | – | – | – | – | – | 100 to 10000 nM | –
11 | COc1ccc(Nc2ncc3c(C)nc(-c4ccccc4)n3n2)cc1OC [Example 92, N-[3,4-Bis(methyloxy)phenyl]-5-methyl-7-phenylimidazo[5,1-f][1,2,4]triazin-2-amine] | – | – | – | – | – | 100 to 10000 nM | –
12 | COc1cc(Nc2ncc3c(C)nc(-c4ccccc4)n3n2)cc(OC)c1 [Example 93, N-[3,5-Bis(methyloxy)phenyl]-5-methyl-7-phenylimidazo[5,1-f][1,2,4]triazin-2-amine] | – | – | – | – | – | 100 to 10000 nM | –
13 | CC(=O)N1CCc2cc(Nc3ncc4c(C)nc(-c5ccccc5)n4n3)ccc21 [Example 99, N-(1-Acetyl-2,3-dihydro-1H-indol-5-yl)-5-methyl-7-phenylimidazo[5,1-f][1,2,4]triazin-2-amine] | – | – | – | – | – | 100 to 10000 nM | –
14 | Cc1nc(-c2ccccc2)n2nc(NC3CCCCC3)ncc12 [Example 100, N-Cyclohexyl-5-methyl-7-phenylimidazo[5,1-f][1,2,4]triazin-2-amine] | – | – | – | – | – | > 10000 nM | –
15 | Cc1nc(-c2ccccc2)n2nc(NC3CCOCC3)ncc12 [Example 101, 5-Methyl-7-phenyl-N-(tetrahydro-2H-pyran-4-yl)imidazo[5,1-f][1,2,4]triazin-2-amine] | – | – | – | – | – | > 10000 nM | –
16 | Cc1nc(-c2ccccc2)n2nc(Nc3ccc(OCCN4CCOCC4)cc3)ncc12 [Example 102, 5-Methyl-N-(4-{[2-(4-morpholinyl)ethyl]oxy}phenyl)-7-phenylimidazo[5,1-f][1,2,4]triazin-2-amine] | – | – | – | – | – | 100 to 10000 nM | –
17 | Cc1nc(-c2ccccc2)n2nc(Nc3ccccc3)ncc12 [Example 105, 5-Methyl-N,7-diphenylimidazo[5,1-f][1,2,4]triazin-2-amine] | – | – | – | – | – | 100 to 10000 nM | –

The next lines start with results.

Row | IC50 [2] | IC50 [3] | IC50 [4] | IC50 [5] | IC50 [6] | IC50 [7] | Compound | IC50 [1]
18 | – | – | – | – | – | 100 to 10000 nM | COc1ccc(Nc2ncc3c(C)nc(-c4ccc(OC)cc4)n3n2)cc1 [Example 87, 5-Methyl-N,7-bis[4-(methyloxy)phenyl]imidazo[5,1-f][1,2,4]triazin-2-amine] | –
19 | – | – | – | – | – | 100 to 10000 nM | COc1ccc(Nc2ncc3c(C)nc(Cc4ccccc4)n3n2)cc1 [Example 88, 5-Methyl-N-[4-(methyloxy)phenyl]-7-(phenylmethyl)imidazo[5,1-f][1,2,4]triazin-2-amine] | –
20 | – | – | – | – | – | 100 to 10000 nM | COc1ccc(Nc2ncc3c(C)nc(-c4cccc(F)c4)n3n2)cc1 [Example 89, 7-(3-Fluorophenyl)-5-methyl-N-[4-(methyloxy)phenyl]imidazo[5,1-f][1,2,4]triazin-2-amine] | –
21 | – | – | – | – | – | 100 to 10000 nM | CC(=O)Nc1ccc(Nc2ncc3c(C)nc(-c4ccccc4)n3n2)cc1 [Example 94, N-{4-[(5-Methyl-7-phenylimidazo[5,1-f][1,2,4]triazin-2-yl)amino]phenyl}acetamide] | –
22 | – | – | – | – | – | 100 to 10000 nM | CSc1ccc(Nc2ncc3c(C)nc(-c4ccccc4)n3n2)cc1 [Example 95, 5-Methyl-N-[4-(methylthio)phenyl]-7-phenylimidazo[5,1-f][1,2,4]triazin-2-amine] | –
23 | – | – | – | – | – | 100 to 10000 nM | Cc1nc(-c2ccccc2)n2nc(Nc3ccc(OCCN(C)C)cc3)ncc12 [Example 96, N-(4-{[2-(Dimethylamino)ethyl]oxy}phenyl)-5-methyl-7-phenylimidazo[5.1-f][1,2,4]triazin-2-amine] | –
24 | – | – | – | – | – | 100 to 10000 nM | COc1ccc(Nc2ncc3c(C)nc(-c4ccccc4)n3n2)cc1 [Example 104, 5-Methyl-N-[4-(methyloxy)phenyl]-7-phenylimidazo[5,1-f][1,2,4]triazin-2-amine] | –
25 | – | – | – | – | – | 100 to 10000 nM | COc1cccc(Nc2ncc3c(C)nc(-c4ccccc4)n3n2)c1 [Example 106, 5-Methyl-N-[3-(methyloxy)phenyl]-7-phenylimidazo[5,1-f][1,2,4]triazin-2-amine] | –
